Counter-ions that a name gives are not always drawn.
Experiments:
Format in all cases: cell-based, human
[1] = test system: induced pluripotent stem cells (iPS cells, 201B7 strain); experiment: Proliferation promoting effect of ethanolamine analogs, laminin 511 fragment, single cell-seeding; conditions: 1 week
Protocol: (§1) In the following Examples, proliferation effects of various test compounds on human pluripotent stem cells were evaluated. As human pluripotent stem cells, induced pluripotent stem cells (iPS cells, 201B7 strain) purchased from iPS Academia Japan, Inc. were used, unless particularly specified. Cell culture was performed using a culture vessel (Becton, Dickinson and Company, Falcon culture petri dish or Falcon culture plate) coated with a basal lamina matrix under the conditions of 5% CO2/37° C.
(§2) Various test compounds were added to a medium having the “E8” composition (disclosed in Nature Methods, 2011, 8, 424-429, which is incorporated herein by reference in its entirety) considered at present to be the minimum composition for cultivating human pluripotent stem cells at given concentrations and used for culture, and the effects thereof were studied. The medium was prepared by using Essential 8 (Life Technologies: A14666SA) considered to have the “E8” composition or a medium formulated to have an equivalent composition.
(§3) After the culture, the cell number was counted to examine the effect of O-phosphoryl ethanolamine. The culture period was set to 1 week. 13,000 viable cells per well were used for single cell-seeding. As a basal lamina matrix, a fragment containing the active domain of laminin 511, which was purchased from Osaka University, was applied at 4.8 μg/well. Y-27632 was added (final concentration 10 μM, Nacalai Tesque: 08945-84) to the medium used for seeding. The cells were cultured in a medium free of Y-27632 from the following day. The number of viable cells was measured by Cell Viability autoanalyzer ViCELL™ XR (BECKMAN COULTER).
as §3, with “2-(methylamino)ethanol.” for “O-phosphoryl ethanolamine.”
as §3, with “2-dimethylaminoethanol.” for “O-phosphoryl ethanolamine.”
as §3, with “ethanolamine hydrochloride.” for “O-phosphoryl ethanolamine.”, “The cells were cultured in a medium free of Y-27632 from the following day.” left out

[2] = test system: induced pluripotent stem cells (iPS cells, 201B7 strain); experiment: Proliferation promoting effect of ethanolamine, culture using matrigel; conditions: 6, 30, 150, 750 or 3,750 μM, 8 days, single cell-seeding
Protocol: as §1, §2
Ethanolamine (Sigma-Aldrich Co. LLC: E0135) was added at a final concentration of 6, 30, 150, 750 or 3,750 μM, and the medium was used for culture immediately after preparation, and the effect of ethanolamine was examined by studying the cell numbers after culture. The culture period was 8 days. 100,000 cells per 1 well were used for single cell-seeding. […]

[3] = test system: induced pluripotent stem cells (iPS cells, 201B7 strain); experiment: Proliferation promoting effect of ethanolamine and combination with albumin, laminin 511 fragment, single cell-seeding; conditions: 1 week
Protocol: as §1, §2
Ethanolamine (Sigma-Aldrich Co. LLC: E0135) was added at a final concentration of 6, 30, 150, 750 or 3,750 μM, and the medium was used for culture immediately after preparation, and the effect of ethanolamine was examined by studying the cell numbers after culture. The culture period was 1 week. […] 13,000 viable cells per 1 well were used for single cell-seeding. As a basal lamina matrix, a fragment containing the active domain of laminin 511, which was purchased from Osaka University, was applied at 5 μg/well. Y-27632 was added (final concentration 10 μM, Nacalai Tesque: 08945-84) to the medium used for seeding. The cells were cultured in a medium free of Y-27632 from the following day. The number of viable cells was measured by Trypan Blue (Life Technologies: 15250-061) staining using a hemocytometer.

[4] = test system: induced pluripotent stem cells (iPS cells, 201B7 strain); experiment: Influence of oleic acid carried by albumin on cell proliferation; conditions: oleic acid carried by albumin 2.2, 6.5, 21.7 mg/g (20, 60, 200 μM in medium); albumin 2.6 g/l, ethanolamine 30 μM; one week
Protocol: as §1
Furthermore, a suspension of activated carbon (5 g, manufactured by Wako Pure Chemical Industries, Ltd.) heated at 200° C. for 30 min in advance in phosphate buffer (20 ml) was added to 100 ml. After stirring at 4° C. for 3 hr, the mixture was centrifuged at 4° C., 11,900 rpm for 20 min. […] Ethanolamine (final concentration 30 μM) was added to each medium. Using each medium, the cells were cultured for one week, and the cell number after culture was confirmed to study the influence of oleic acid. 13,000 viable cells per well were used for single cell-seeding. As a basal lamina matrix, a fragment containing the active domain of laminin 511, which was purchased from Osaka University, was applied at 4.8 μg/well. […] The number of viable cells was measured by Cell Viability autoanalyzer ViCELL™ XR (BECKMAN COULTER).

[5] = 6, 30, 150 or 750 μM in medium with albumin 2.6 g/l

Compound: CNCCO [2-(methylamino)ethanol]
- cell number relative to non-addition group (0 μM) [1, 5]: proliferation-promoting effect in a relatively wide concentration range

Compound: CN(C)CCO [2-dimethylaminoethanol]
- cell number relative to non-addition group (0 μM) [1, 5]: proliferation promoting effect in a relatively wide concentration range
- cell number relative to non-addition group (0 μM) ([1]; high concentration range, medium with albumin 2.6 g/l): proliferation suppressive effect appears in a high concentration range

Compound: NCCOP(=O)(O)O [O-phosphoryl ethanolamine]
- cell number relative to non-addition group (0 μM) [1, 5]: proliferation-promoting effect in a relatively wide concentration range

Compound: NCCO [ethanolamine hydrochloride]
- cell number relative to non-addition group (0 μM) [1, 5]: proliferation-promoting effect in a relatively wide concentration range

Compound: NCCO [ethanolamine]
- cell number after culture [2]: proliferation promoting effect in a wide concentration range
- cell number relative to non-addition group (0 μM) ([3]; 6, 30, 150, 750 or 3,750 μM, without albumin): proliferation-promoting effect in a relatively wide concentration range
- cell number relative to non-addition group (0 μM) ([3]; 6-3,750 μM combined with albumin 2.6 g/l): combination with albumin further enhances the proliferation promoting effect
- cell number relative to non-addition group (0 μM) ([3]; high concentration range combined with albumin 2.6 g/l): resists a proliferation suppressive effect in a high concentration range, and shows a proliferation promoting effect
- cell number relative to non-addition group (0 μM) ([3]; high concentration range, without albumin): proliferation suppressive effect conversely appears in a high concentration range

Compound: CCCCCCCC/C=C\CCCCCCCC(=O)O [oleic acid]
- cell number after culture [4]: cell proliferation was suppressed along with an increasing amount of oleic acid carried by albumin

Source: patent US10662411B2, “Culture method for stable proliferation of pluripotent stem cell while maintaining undifferentiated state” (AJINOMOTO CO., INC., priority 2013, dated 2020)
